From ChEMBL document CHEMBL1201862, “PubChem BioAssay data set” (2004)
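Grown in 96-well plates, cells were treated for 48 hours with each compound at five concentrations. Insufficient inhibition: endpoint recorded as highest concentration tested. The concentration for 50% growth inhibition is given as GI50.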 Activity calls are given as the source filed them. No stated cut-off is given here; in the data, active = GI50 up to about 1.1 µM and inactive = higher.

Legend:
Test in all cases: NCI anticancer screen, dose series, 48 h
[1] = tested on: M14
[2] = tested on: A549
[3] = tested on: SF-295
[4] = tested on: OVCAR-3
[5] = tested on: KM12
[6] = tested on: SR
[7] = tested on: BT-549
[8] = tested on: HCT-15
[9] = tested on: NCI-H23
[10] = tested on: EKVX
[11] = tested on: SK-OV-3
[12] = tested on: MDA-MB-231
[13] = tested on: MDA-MB-435
[14] = tested on: SK-MEL-28
[15] = tested on: SK-MEL-2
[16] = tested on: HT-29
[17] = tested on: 786-0
[18] = tested on: NCI-H226
[19] = tested on: Malme-3M

Structure (SMILES)	GI50 [1]	GI50 [2]	GI50 [3]	GI50 [4]	GI50 [5]	GI50 [6]	GI50 [7]	GI50 [8] [µM]	GI50 [9]	GI50 [10]	GI50 [11]	GI50 [12]	GI50 [13]	GI50 [14]	GI50 [15]	GI50 [16]	GI50 [17]	GI50 [18]	GI50 [19]
O=C(O)CCCc1ccc2ccccc2c1	> 100 µM (inactive)	> 100 µM (inactive)	> 100 µM (inactive)	> 100 µM (inactive)	> 100 µM (inactive)	97.9 µM (inactive)	> 100 µM (inactive)	> 100	> 100 µM (inactive)	> 100 µM (inactive)	> 100 µM (inactive)	> 100 µM (inactive)	> 100 µM (inactive)	> 100 µM (inactive)	> 100 µM (inactive)	> 100 µM (inactive)	> 100 µM (inactive)	–	–
CN(C)CN1C(=O)S/C(=C2\C(=O)N(CN(C)C)c3ccccc32)C1=O	21.7 µM (inactive)	45.8 µM (inactive)	96.6 µM (inactive)	50.2 µM (inactive)	41.5 µM (inactive)	18.9 µM (inactive)	45.1 µM (inactive)	30.4	21.7 µM (inactive)	43.3 µM (inactive)	> 100 µM (inactive)	66.2 µM (inactive)	66.1 µM (inactive)	64.7 µM (inactive)	32.1 µM (inactive)	42.4 µM (inactive)	35.7 µM (inactive)	38.9 µM (inactive)	–
CC(=O)NS(=O)(=O)c1ccc(NC(=O)c2c3ccccc3nc3ccccc23)cc1	> 100 µM (inactive)	> 100 µM (inactive)	> 100 µM (inactive)	> 100 µM (inactive)	> 100 µM (inactive)	> 100 µM (inactive)	> 100 µM (inactive)	> 100	> 100 µM (inactive)	> 100 µM (inactive)	> 100 µM (inactive)	> 100 µM (inactive)	> 100 µM (inactive)	> 100 µM (inactive)	> 100 µM (inactive)	> 100 µM (inactive)	> 100 µM (inactive)	–	34.4 µM (inactive)
C=C1C(=O)OC2/C=C(/C)C(OC(C)=O)C/C=C(\C)C(OC(=O)C3(C)OC3C)C(O)C12 (stereo not given)	> 100 µM (inactive)	> 100 µM (inactive)	> 100 µM (inactive)	> 100 µM (inactive)	> 100 µM (inactive)	39.4 µM (inactive)	65.6 µM (inactive)	53.3	> 100 µM (inactive)	> 100 µM (inactive)	> 100 µM (inactive)	> 100 µM (inactive)	> 100 µM (inactive)	71 µM (inactive)	> 100 µM (inactive)	> 100 µM (inactive)	47.4 µM (inactive)	> 100 µM (inactive)	–
CCOC(=O)c1c(Sc2ccc([N+](=O)[O-])cc2[N+](=O)[O-])nc2c3ccccc3ccn12	> 100 µM (inactive)	> 100 µM (inactive)	28.7 µM (inactive)	> 92.5 µM (inactive)	> 100 µM (inactive)	> 100 µM (inactive)	> 75.2 µM (inactive)	> 100	> 91 µM (inactive)	> 100 µM (inactive)	15.9 µM (inactive)	29.1 µM (inactive)	> 100 µM (inactive)	> 100 µM (inactive)	> 100 µM (inactive)	> 100 µM (inactive)	5.6 µM (inactive)	83.6 µM (inactive)	–
CC(C(N)=O)N(C)C(=O)c1cc2ccccc2[n+](Cc2ccccc2)c1 (stereo not given)	> 100 µM (inactive)	> 100 µM (inactive)	> 100 µM (inactive)	> 100 µM (inactive)	> 100 µM (inactive)	–	> 100 µM (inactive)	> 100	> 100 µM (inactive)	–	–	> 100 µM (inactive)	> 100 µM (inactive)	> 100 µM (inactive)	> 100 µM (inactive)	> 100 µM (inactive)	> 100 µM (inactive)	> 100 µM (inactive)	> 100 µM (inactive)
N[C@@H](CCC(=O)NCP(=O)(O)O)C(=O)O	–	> 100 µM (inactive)	> 100 µM (inactive)	> 100 µM (inactive)	> 100 µM (inactive)	> 100 µM (inactive)	> 100 µM (inactive)	> 100	> 100 µM (inactive)	> 100 µM (inactive)	–	> 100 µM (inactive)	> 100 µM (inactive)	> 100 µM (inactive)	> 100 µM (inactive)	> 100 µM (inactive)	> 100 µM (inactive)	–	> 100 µM (inactive)
CC(=O)C(I(OS(=O)(=O)c1ccc(C)cc1)c1ccccc1)=P(c1ccccc1)(c1ccccc1)c1ccccc1	22.1 µM (inactive)	24.4 µM (inactive)	99.3 µM (inactive)	20.2 µM (inactive)	16.2 µM (inactive)	–	18.9 µM (inactive)	> 100	18.1 µM (inactive)	28 µM (inactive)	43.6 µM (inactive)	23.4 µM (inactive)	15.8 µM (inactive)	18 µM (inactive)	16 µM (inactive)	18.9 µM (inactive)	30.1 µM (inactive)	17.1 µM (inactive)	14.8 µM (inactive)
Cc1nc2cn3c(c2c(=O)[nH]1)CCCCC3	> 100 µM (inactive)	–	> 100 µM (inactive)	–	> 100 µM (inactive)	> 100 µM (inactive)	> 100 µM (inactive)	> 100	> 100 µM (inactive)	> 100 µM (inactive)	> 100 µM (inactive)	28.2 µM (inactive)	> 100 µM (inactive)	> 100 µM (inactive)	> 100 µM (inactive)	> 100 µM (inactive)	> 100 µM (inactive)	> 100 µM (inactive)	–
O=C(Cn1c2ccc(Br)cc2c2nc3ccccc3nc21)Nc1ccccc1	30.1 µM (inactive)	17 µM (inactive)	31.3 µM (inactive)	> 100 µM (inactive)	56.8 µM (inactive)	–	> 100 µM (inactive)	25.1	28 µM (inactive)	–	> 100 µM (inactive)	13.3 µM (inactive)	51.4 µM (inactive)	36.1 µM (inactive)	55 µM (inactive)	24.8 µM (inactive)	14.3 µM (inactive)	32.6 µM (inactive)	28.6 µM (inactive)
CN1CCc2c(sc3ncn(Nc4ccc(Cl)cc4)c(=N)c23)C1	> 100 µM (inactive)	> 100 µM (inactive)	> 100 µM (inactive)	> 100 µM (inactive)	> 100 µM (inactive)	–	> 100 µM (inactive)	> 100	> 100 µM (inactive)	> 100 µM (inactive)	> 100 µM (inactive)	> 100 µM (inactive)	> 100 µM (inactive)	> 100 µM (inactive)	> 100 µM (inactive)	> 100 µM (inactive)	> 100 µM (inactive)	> 100 µM (inactive)	> 100 µM (inactive)
OC[C@H]1O[C@@H]2O[C@@](COCc3ccccc3)([C@H](OCc3ccccc3)[C@H]2O)[C@@H]1OCc1ccccc1	17.6 µM (inactive)	14.7 µM (inactive)	15.3 µM (inactive)	14.6 µM (inactive)	16.7 µM (inactive)	2.33 µM (inactive)	22.2 µM (inactive)	18.8	16.6 µM (inactive)	14.1 µM (inactive)	14.8 µM (inactive)	15.3 µM (inactive)	17.3 µM (inactive)	–	16.3 µM (inactive)	4.81 µM (inactive)	17 µM (inactive)	–	–
CCN(CC)C(=S)Oc1cc2oc(=O)cc(C)c2cc1Cl	> 100 µM (inactive)	> 100 µM (inactive)	66.7 µM (inactive)	> 100 µM (inactive)	> 100 µM (inactive)	> 100 µM (inactive)	> 100 µM (inactive)	> 100	> 100 µM (inactive)	> 100 µM (inactive)	–	> 100 µM (inactive)	> 100 µM (inactive)	> 100 µM (inactive)	8.51 µM (inactive)	> 100 µM (inactive)	> 100 µM (inactive)	> 100 µM (inactive)	–
Cc1cc2c(cc1C)[n+]([O-])c(N1CCN(c3ccc([N+](=O)[O-])cc3)CC1)c(C#N)[n+]2[O-]	35.9 µM (inactive)	29.8 µM (inactive)	15.2 µM (inactive)	–	> 100 µM (inactive)	–	32.4 µM (inactive)	85.3	25.6 µM (inactive)	26 µM (inactive)	14.2 µM (inactive)	20 µM (inactive)	> 100 µM (inactive)	> 100 µM (inactive)	22 µM (inactive)	> 100 µM (inactive)	14.1 µM (inactive)	35.6 µM (inactive)	69.5 µM (inactive)
COC(=O)c1cc(OC)c(OC)c(OC)c1-c1cc2c(cc1C=O)OCO2	> 10 µM (inactive)	> 10 µM (inactive)	> 10 µM (inactive)	> 10 µM (inactive)	> 10 µM (inactive)	–	> 10 µM (inactive)	> 10	> 10 µM (inactive)	> 10 µM (inactive)	> 10 µM (inactive)	> 10 µM (inactive)	> 10 µM (inactive)	> 10 µM (inactive)	> 10 µM (inactive)	> 10 µM (inactive)	> 10 µM (inactive)	> 10 µM (inactive)	> 10 µM (inactive)
CC(C)=CCC/C(C)=C/CC/C(C)=C/CSc1ccccc1C(=O)O [SALIRASIB]	20.4 µM (inactive)	20.7 µM (inactive)	18.7 µM (inactive)	16.5 µM (inactive)	17.6 µM (inactive)	–	16.7 µM (inactive)	14.7	18.2 µM (inactive)	18.4 µM (inactive)	25.4 µM (inactive)	22.6 µM (inactive)	20 µM (inactive)	21.1 µM (inactive)	14.4 µM (inactive)	20.5 µM (inactive)	18.2 µM (inactive)	23.5 µM (inactive)	–
